Source: patent US4009273A, “Substituted 10,11-dihydro-5,10-imino-[5H] dibenzo (a,d)-cycloheptene” (priority 1972, dated 1977)
Values joined by “and” are separate entries in the source; they are usually repeats but may differ in a detail not shown here. Identical values can stand only once.

What was measured:
[1] = tested on: amphetamine deaths; assay: Amphetamine toxicity in mice; type: in vivo, mice (female); conditions: mortality at 4 h
Description: The test was effected on group of 10 female mice weighing between 18 and 22 g kept at 27° C for the duration of the test. The test products were intraperitoneally administered in different doses in a volume of 0.01 ml /g of mouse. One hour later, the mice received an injection of 15 mg/kg of a solution of 1.5 mg of amphetamine per ml of physiological serum. The mortality 4 hours after the amphetamine injection was determined and the results were expressed as a ratio of number of dead animals to number of starting animals.

[2] = tested on: pentamethylenetetrazol convulsions; assay: Anticonvulsant effect (pentamethylenetetrazol perfusion); type: in vivo, mice (female); conditions: 1 h before perfusion
Description: The anticonvulsant activity of the compounds was determined on groups of 10 female mice with intraperitoneal administration of the test compounds in acid solution at different doses and the control group received only the solvent. One hour after the injection, the mice were perfused with a solution of pentamethylenetetrazol in physiological serum at a concentration of 3 mg/ml. The perfusion was intraveinous at a rate of 1 ml per minute and in the course of the perfusion, the progress of introxication was characterized by the following 3 criteria:
a. Threshold of convulsant effect (myoclonia of the ears)
b. Crisis of clonic convulsions
c. Tonic convulsion with apnea and generally followed by death.

[3] = tested on: amytal sleeping time; assay: Potentialization of sleeping time (amytal); type: in vivo, mice (female); conditions: 1 h before 80 mg/kg amytal i.v.
Description: The potentialization of sleeping time was determined with a test using amytal [5-ethyl-5-isoamyl-barbituric acid] in which groups of female mice weighing between 18 and 22 g were kept at 25° C for the duration of the test. The test products were administered intraperitoneally at different doses one hour before intraveinous injection of 80 mg/kg of amytal and the sleeping time was noted which is the time while the reflux of straightening in the mice was negative.

[4] = tested on: DOPA; assay: Potentialization of DOPA; type: in vivo, mice (male); conditions: 1 h before 50 mg/kg DOPA
Description: In this test, DOPA [racemic β-(3,4-dihydroxyphenyl)-alanine] was administered to mice pretreated with 1-isonicotinoyl-2-isopropyl-hydrazine18 hours before the test which product caused the following symptoms: hypertonicity, agitation, crying, aggressiveness, salivation and exophthalmia. The administration of an antidepressant one hour before the DOPA injection potentializes the intensity of the effects.
Male mice weighing between 18 to 22 g received intraperitoneally 50 mg/kg of 1-isonicotinoyl-2-isopropyl-hydrazine and 18 hours later the test product intraperitoneally in aqueous solution in increasing doses and 1 hour later received an intraperitoneal injection of 50 mg/kg of DOPA. The different effects were evaluated 15 and 30 minutes after the DOPA injection and each symptom was evaluated for each animal on a scale from 0 to 3 and the evaluations for each dose was totaled. The totals are reported in Table III as a percent of the total of control animals.

[5] = Acute toxicity; conditions: mouse, in vivo, ip, Swiss mice, observed for a week
Description: The acute toxicity was determined on groups of Swiss mice weighing 18 to 22 g and the test products were administered intraperitoneally in increasing doses and the animals were kept under observation for a week.

[6] = 5 mg/Kg i.p., 1 h before 15 mg/kg amphetamine
[7] = 10 mg/Kg i.p., 1 h before 15 mg/kg amphetamine
[8] = 20 mg/Kg i.p., 1 h before 15 mg/kg amphetamine
[9] = head prints only "mg/Kg" (dose figure missing), i.p.

Compound: CCN1C2Cc3ccccc3C1c1ccccc12 (stereo not drawn) [Example 21, 12-ethyl-10,11-dihydro-5,10-imino-[5H]-dibenzo (a,d) cycloheptene dl]
- ratio of number of dead animals to number of starting animals [1, 6]: 10/10
- ratio of number of dead animals to number of starting animals [1, 7]: 6/10
- ratio of number of dead animals to number of starting animals [1, 8]: 0/10
- ratio of number of dead animals to number of starting animals [1, 9]: 0/10
- Dose of pentamethylenetetrazol, Clonic Crisis ([2]; 1 mg/Kg i.p.): 48.3 mg/kg
- Dose of pentamethylenetetrazol, Myoclonia ([2]; 1 mg/Kg i.p.): 42.9 mg/kg
- Dose of pentamethylenetetrazol, Tonic Crisis ([2]; 1 mg/Kg i.p.): 168.2 mg/kg
- Dose of pentamethylenetetrazol, Clonic Crisis ([2]; 2 mg/Kg i.p.): 47.7 mg/kg
- Dose of pentamethylenetetrazol, Myoclonia ([2]; 2 mg/Kg i.p.): 42.3 mg/kg
- Dose of pentamethylenetetrazol, Tonic Crisis ([2]; 2 mg/Kg i.p.): 206.2 mg/kg
- Dose of pentamethylenetetrazol, Clonic Crisis ([2]; 5 mg/Kg i.p.): 57.0 mg/kg
- Dose of pentamethylenetetrazol, Myoclonia ([2]; 5 mg/Kg i.p.): 49.6 mg/kg
- Dose of pentamethylenetetrazol, Tonic Crisis ([2]; 5 mg/Kg i.p.): 238.1 mg/kg
- average sleeping time ([3]; 1 mg/Kg i.p.): 32.1 min
- average sleeping time ([3]; 2 mg/Kg i.p.): 39.6 min
- average sleeping time ([3]; 5 mg/Kg i.p.): 58.1 min
- average sleeping time ([3]; 10 mg/Kg i.p.): 71.5 min
- total symptom score as percent of the total of control animals ([4]; 1 mg/Kg i.p.): 187%
- total symptom score as percent of the total of control animals ([4]; 2 mg/Kg i.p.): 175%
- total symptom score as percent of the total of control animals ([4]; 5 mg/Kg i.p.): 181%

Compound: CC(=O)CN1C2Cc3ccccc3C1c1ccccc12 (stereo not drawn) [Example 7, 12-acetonyl-10,11-dihydro-5,10-imino-[5H]-dibenzo (a,d) cycloheptene dl]
- ratio of number of dead animals to number of starting animals [1, 6]: 2/10
- ratio of number of dead animals to number of starting animals [1, 7]: 0/10
- ratio of number of dead animals to number of starting animals [1, 8]: 0/10
- ratio of number of dead animals to number of starting animals [1, 9]: 0/10
- LD50 at 168 h [5]: 350 mg/kg
- Dose of pentamethylenetetrazol, Clonic Crisis ([2]; 0.5 mg/Kg i.p.): 53.3 mg/kg
- Dose of pentamethylenetetrazol, Myoclonia ([2]; 0.5 mg/Kg i.p.): 48.6 mg/kg
- Dose of pentamethylenetetrazol, Tonic Crisis ([2]; 0.5 mg/Kg i.p.): 119.2 mg/kg
- Dose of pentamethylenetetrazol, Clonic Crisis ([2]; 1 mg/Kg i.p.): 52.7 mg/kg
- Dose of pentamethylenetetrazol, Myoclonia ([2]; 1 mg/Kg i.p.): 47.7 mg/kg
- Dose of pentamethylenetetrazol, Tonic Crisis ([2]; 1 mg/Kg i.p.): 172.5 mg/kg
- Dose of pentamethylenetetrazol, Clonic Crisis ([2]; 2 mg/Kg i.p.): 62.6 mg/kg
- Dose of pentamethylenetetrazol, Myoclonia ([2]; 2 mg/Kg i.p.): 57.7 mg/kg
- Dose of pentamethylenetetrazol, Tonic Crisis ([2]; 2 mg/Kg i.p.): 172.5 mg/kg
- Dose of pentamethylenetetrazol, Clonic Crisis ([2]; 5 mg/Kg i.p.): 112.5 mg/kg
- Dose of pentamethylenetetrazol, Myoclonia ([2]; 5 mg/Kg i.p.): 107.4 mg/kg
- Dose of pentamethylenetetrazol, Tonic Crisis ([2]; 5 mg/Kg i.p.): 238.9 mg/kg
- average sleeping time ([3]; 5 mg/Kg i.p.): 31.3 min
- average sleeping time ([3]; 10 mg/Kg i.p.): 51.2 min
- average sleeping time ([3]; 20 mg/Kg i.p.): 82.3 min
- average sleeping time ([3]; 50 mg/Kg i.p.): 107.5 min
- total symptom score as percent of the total of control animals ([4]; 1 mg/Kg i.p.): 114%
- total symptom score as percent of the total of control animals ([4]; 2 mg/Kg i.p.): 135%
- total symptom score as percent of the total of control animals ([4]; 5 mg/Kg i.p.): 138%
- total symptom score as percent of the total of control animals ([4]; 10 mg/Kg i.p.): 173%

Compound: OCCN1C2Cc3ccccc3C1c1ccccc12 (stereo not drawn) [Example 6, 12-(2'-hydroxyethyl)-10,11-dihydro-5,10-imino-[5H]-dibenzo (a,d) cycloheptene dl]
- ratio of number of dead animals to number of starting animals [1, 6]: 3/10
- ratio of number of dead animals to number of starting animals [1, 7]: 9/10 and 3/10
- ratio of number of dead animals to number of starting animals [1, 8]: 0/10
- LD50 at 168 h [5]: 350 mg/kg
- Dose of pentamethylenetetrazol, Clonic Crisis ([2]; 0.5 mg/Kg i.p.): 42.9 mg/kg
- Dose of pentamethylenetetrazol, Myoclonia ([2]; 0.5 mg/Kg i.p.): 38.2 mg/kg
- Dose of pentamethylenetetrazol, Tonic Crisis ([2]; 0.5 mg/Kg i.p.): 129.0 mg/kg
- Dose of pentamethylenetetrazol, Clonic Crisis ([2]; 1 mg/Kg i.p.): 45.7 mg/kg
- Dose of pentamethylenetetrazol, Myoclonia ([2]; 1 mg/Kg i.p.): 40.6 mg/kg
- Dose of pentamethylenetetrazol, Tonic Crisis ([2]; 1 mg/Kg i.p.): 144.2 mg/kg
- Dose of pentamethylenetetrazol, Clonic Crisis ([2]; 2 mg/Kg i.p.): 43.5 mg/kg
- Dose of pentamethylenetetrazol, Myoclonia ([2]; 2 mg/Kg i.p.): 38.6 mg/kg
- Dose of pentamethylenetetrazol, Tonic Crisis ([2]; 2 mg/Kg i.p.): 104.3 mg/kg
- Dose of pentamethylenetetrazol, Clonic Crisis ([2]; 5 mg/Kg i.p.): 45.5 mg/kg
- Dose of pentamethylenetetrazol, Myoclonia ([2]; 5 mg/Kg i.p.): 49.3 mg/kg
- Dose of pentamethylenetetrazol, Tonic Crisis ([2]; 5 mg/Kg i.p.): 204.6 mg/kg
- total symptom score as percent of the total of control animals ([4]; 1 mg/Kg i.p.): 138%
- total symptom score as percent of the total of control animals ([4]; 2 mg/Kg i.p.): 155%
- total symptom score as percent of the total of control animals ([4]; 10 mg/Kg i.p.): 140%
